This note sets out measurements from US20260131007A1, “Mannose 6-Phosphate Receptor Binding Compounds for the Degradation of Extracellular Proteins” (Avilar Therapeutics, Inc., priority 2023, published 2026).

The chains are these.
B1: Compound 9 (peptide)
peptide: cyclo(ELVWCT[dP]PDCAWHLG)
modifications: disulfide 5-10; not fully specified (residue 8); also: branched PEG linker structure not given here
B2: Compound 1 (peptide)
peptide: cyclo(ELVWCT[dP]PDCAWHLG)
modifications: disulfide 5-10; not fully specified (residue 8); also: trivalent linker structure not given here
B3: Compound 6 (peptide)
peptide: cyclo(ELVWCT[dP]PDCAWHLG)
modifications: disulfide 5-10; not fully specified (residue 8); also: one triazole-linked (2-(6-(but-3-yn-1-yloxy)-3,4,5-trihydroxytetrahydro-2H-pyran-2-yl)ethyl)phosphonic acid group on the PEG8 linker
B4: Compound 11 (peptide)
peptide: cyclo(ELVWCT[dP]PDCAWHLG)
modifications: disulfide 5-10; not fully specified (residue 8); also: one triazole-linked A77 group on the PEG8 linker
B5: Compound 10 (peptide)
peptide: cyclo(ELVWCT[dP]PDCAWHLG)
modifications: disulfide 5-10; not fully specified (residue 8); also: trivalent linker structure not given here

Bridge positions count the residues as written; N and C are the ends. Square brackets hold non-standard residues; d marks the D form.

For the first test, the target named is T1, hIGF-IIR and IgG1 (ternary complex) (Homo sapiens, UniProt P01857+P11717).
T1 construct: purchased R&D Systems 6418-GR
The experiment in a line: HTRF-based ternary complex formation assay for hIGF-IIR targeting Extracellular Protein Degraders. The format is binding.
Details: not given
From the text:
The ternary complex formation assay is designed to identify and determine the potency of Extracellular Protein Degrader molecules which can induce the formation of ternary complex between the Extracellular Protein Degrader hIGF-IIR. Titrating Extracellular Protein Degrader to fixed amount of hIGF-IIR results in a bell-shaped curve (except molecules whose binary complex affinity between Extracellular Protein Degrader and hIGF-IIR). The peak mean represents Extracellular Protein Degrader concentration at which maximum ternary complex is formed. Too much or too little Extracellular Protein Degrader leads to decreased ternary complex formation due to formation of binary complex (Hook effect). Dose response of Extracellular Protein Degrader compounds (16-point 3-fold dilution series, 100X) were prepared by Echo Acoustic Liquid Handler (Beckman Coulter Life Sciences) using 384-well LDV microplate. Then 200 nL of the solutions were transferred to an OptiPlate 384-well microplate (PerkinElmer, 6007290). To the assay plate, 10 μL working solution containing 60 nM of Biotinylated-IgG1 (Viva 20211108) and 60 nM of His-tagged hIGF-IIR (R&D Systems, 6418-GR) in assay buffer 50 mM Tris, pH 7.5, 150 mM NaCl, 50 mM CaCl2, 0.01% Tween-20 were added. The plate was incubated for 60 min at room temperature with gentle shaking to allow molecular interaction to reach equilibration. Following this, 10 μL of HTRF detection solution containing 15 nM Streptavidin-d2 (PerkinElmer, 610SADLA) and 0.7 nM MAb Anti 6HIS—Tb cryptate (PerkinElmer, 61HISTLA) in PPI Terbium detection buffer (PerkinElmer, 61DB10RDF) were added. The assay plate was incubated at room temperature with gentle shaking for 60 min to allow HTRF signal to develop. The plate was gently spun on a centrifuge then placed on an EnVision plate reader (Perkin Elmer, EnVision 2104) to read fluorescence ratio of 665 nm/615 nm. Data were analyzed by fitting with Bell-shaped non-linear regression model using GraphPad Prism (GraphPad Software, LLC; version 9.4.1). Mean fluorescence intensity is graphed versus compound concentration and the EC50 for TCF is calculated from the inflection point of the curve (GraphPad).
Background: Time-resolved FRET reads energy transfer from a long-lived donor to a nearby acceptor.
As a reminder, the EC50 is the concentration at which the effect is half-maximal. For the molecule `COc1ccc(OC2O[C@H](CCP(=O)(O)Cc3cn(CCOCCNC(=O)CCOCC(COCCC(=O)NCCOCCn4cc(CP(=O)(O)CC[C@@H]5OC(Oc6ccc(OC)cc6)[C@H](O)[C@H](O)[C@H]5O)nn4)(COCCC(=O)NCCOCCn4cc(CP(=O)(O)CC[C@H]5OC(Oc6ccc(OC)cc6)[C@@H](O)[C@@H](O)[C@@H]5O)nn4)NC(=O)COCCOCCOCC(=O)N[C@H]4C[C@H]5C(=O)N[C@@H](CC(=O)O)C(=O)N[C@H]6CSSC[C@H](NC(=O)[C@H](Cc7c[nH]c8ccccc78)NC(=O)[C@H](C(C)C)NC(=O)[C@H](CC(C)C)NC(=O)[C@H](CCC(=O)O)NC(=O)CNC(=O)[C@H](CC(C)C)NC(=O)[C@H](Cc7c[nH]cn7)NC(=O)[C@H](Cc7c[nH]c8ccccc78)NC(=O)[C@H](C)NC6=O)C(=O)N[C@@H]([C@@H](C)O)C(=O)N6CCC[C@@H]6C(=O)N5C4)nn3)[C@@H](O)[C@H](O)[C@@H]2O)cc1` (stereo partly shown) [Compound 10], the EC50 is under 0.05 µM.

For another test, the target named is T2, Insulin-like growth factor 2 receptor (IGF-1IR, cation-independent mannose-6-phosphate receptor, CI-MPR; hIGF-IIR) (Homo sapiens, UniProt P11717).
T2 construct: purchased R&D Systems 6418-GR
Briefly: HTRF-based ternary complex inhibition assay for relative affinity of IGF-IIR ligands. The settings on record: competition with MTAC probe for His-tagged hIGF-IIR; biotinylated IgG1; apparent binding affinity; read-out: TCF INH (HTRF) IC50. As for the experimental part: The apparent binding affinity of Insulin-like growth factor 2 receptor (IGF-1IR, also called the cation- independent mannose-6-phosphate receptor (CI-MPR)) ligands was determined indirectly by competing with a probe molecule for binding to IGF-1IR. The probe is a Mannose 6-Phosphate Ligand (“Ligand”) and binds to hIGF-IIR and IgG1 to form a hIGF-IIR: Ligand: IgG1 ternary complex. The ternary complex was detected by an HTRF readout. The ternary complex is disrupted in the presence of IGF-1IR ligand, resulting in decreased HTRF signal. IGF-1IR ligands of 3-fold dilution series were prepared from 10 mM DMSO stock on a 384-well LDV microplate using Echo Acoustic Liquid Handler (Beckman Coulter Life Sciences) followed by transfer of 600 nL of the solutions to an OptiPlate 384-well microplate (PerkinElmer, 6007290). Manose-6-phosphate (M6P; J&K, 530168) and glucose-6-phosphate (G6P; Sigma, V900924) were prepared from 100 mM stock in the same manner and were used as positive and negative controls, respectively. The wells used as 0% and 100% inhibition controls were prepared by adding 600 nL DMSO. 20 nL of 50 μM MTAC probe was transferred to all wells except the wells used as 100% Inhibition control. 9.4 μL working solution containing 65.1 nM of Biotinylated-IgG1 (Viva 20211108) and 65.1 nM of His-tagged hIGF-IIR (R&D Systems, 6418-GR) in assay buffer 50 mM Tris, pH 7.5, 150 mM NaCl, 50 mM CaCl2, 0.01% Tween-20 was transferred to all wells. The plate was incubated at room temperature for 60 min with gentle shaking to allow molecular interaction to reach equilibration. Following this, 10 μL of HTRF detection solution containing 15 nM Streptavidin-d2 (PerkinElmer, 610SADLA) and 0.7 nM MAb Anti 6HIS—Tb cryptate (PerkinElmer, 61HISTLA) in PPI Terbium detection buffer (PerkinElmer, 61DB10RDF) was added. The assay plate was incubated at room temperature with gentle shaking for 60 min to allow HTRF signal to develop. The plate was gently spun on a centrifuge then placed on a EnVision plate reader (Perkin Elmer, EnVision 2104) to read fluorescence ratio of 665 nm/615 nm. Percent inhibitions were calculated with this equation: % I=100* [1−(X−100% I/(0% I−100% I)] where X is the […] in the presence of IGF-1IR ligand. The apparent binding affinity (presented as IC50) was calculated by fitting the % inhibition data with a non-linear 4-parameter inhibition equation using GraphPad Prism (GraphPad Software, LLC; version 9.4.1).
Broadly, the IC50 is the midpoint of a concentration-inhibition curve. Take `COc1ccc(OC2O[C@H](CCP(=O)(O)CC#N)[C@@H](O)[C@H](O)[C@@H]2O)cc1` (stereo partly drawn) [Compound A48, (cyanomethyl) (2-((2R,3S,4S,5S)-3,4,5-trihydroxy-6-(4-methoxyphenoxy)tetrahydro-2H-pyran-2-yl)ethyl)phosphinic acid]: the IC50 is 10 to 100 µM.

On to `C=CCP(=O)(O)CC[C@H]1OC(Oc2ccc(OC)cc2)[C@@H](O)[C@@H](O)[C@@H]1O` (stereo partly drawn) [Compound A52, allyl(2-((2R,3S,4S,5S)-3,4,5-trihydroxy-6-(4-methoxyphenoxy)tetrahydro-2H-pyran-2-yl)ethyl)phosphinic acid], for which the IC50 was in the range of 10 to 100 µM.

For `O=P(O)(CC[C@H]1O[C@H](OC2CCCCC2)[C@@H](O)[C@@H](O)[C@@H]1O)Cc1ccccc1O` [Compound A47, 2-[(2R,3S,4S,5S,6S)-6-(cyclohexoxy)-3,4,5-trihydroxy-tetrahydropyran-2-yl]ethyl-[(2-hydroxyphenyl)methyl]phosphinic acid], the IC50 was in the range of 10 to 100 µM.

As for `O=P(O)(O)CC[C@H]1O[C@H](/C=C/c2ccccc2)[C@@H](O)[C@@H](O)[C@@H]1O` [Compound A21, (2-((2R,3S,4S,5S,6R)-3,4,5-trihydroxy-6-((E)-styryl)tetrahydro-2H-pyran-2-yl)ethyl)phosphonic acid], the IC50 was 10 to 100 µM.

In the case of `O=P(O)(O)CC[C@H]1OC(C#Cc2ccccc2)[C@@H](O)[C@@H](O)[C@@H]1O` (stereo partly drawn) [Compound A16, (2-((2R,3S,4S,5S)-3,4,5-trihydroxy-6-(phenylethynyl)tetrahydro-2H-pyran-2-yl)ethyl)phosphonic acid], the IC50 was under 10 µM.

As to `O=P(O)(CC[C@H]1O[C@H](Oc2ccc3c(c2)Cc2ccccc2-3)[C@@H](O)[C@@H](O)[C@@H]1O)Cc1c(F)cccc1F` [Compound A79, (2-((2R,3S,4S,5S,6R)-6-((9H-fluoren-2-yl)oxy)-3,4,5-trihydroxytetrahydro-2H-pyran-2-yl)ethyl) (2,6-difluorobenzyl)phosphinic acid], the IC50 is under 10 µM.

As for `NC[C@H]1O[C@H](Oc2ccccc2)[C@@H](O)[C@@H](O)[C@@H]1O` [Compound A2, (2R,3S,4S,5S,6R)-2-(aminomethyl)-6-phenoxytetrahydro-2H-pyran-3,4,5-triol], the IC50 is 10 to 100 µM.

On to `O=P(O)(O)CC[C@H]1OC(CCc2ccccc2)[C@@H](O)[C@@H](O)[C@@H]1O` (stereo partly drawn) [Compound A13, (2-((2R,3S,4R,5S)-3,4,5-trihydroxy-6-phenethyltetrahydro-2H-pyran-2-yl)ethyl)phosphonic acid], for which the IC50 is under 10 µM.

In the case of `O=P(O)(O)CC[C@H]1O[C@H](c2cn(CCc3ccccc3)nn2)[C@@H](O)[C@@H](O)[C@@H]1O` [Compound A17, (2-((2R,3S,4S,5S,6R)-3,4,5-trihydroxy-6-(1-phenethyl-1H-1,2,3-triazol-4-yl)tetrahydro-2H-pyran-2-yl)ethyl)phosphonic acid], the IC50 was under 10 µM.

As to `O=P(O)(O)C1CC1[C@H]1O[C@H](Oc2ccccc2)[C@@H](O)[C@@H](O)[C@@H]1O` (stereo partly drawn) [Compound A43, [2-[(2R,3S,4S,5S,6R)-3,4,5-trihydroxy-6-phenoxy-tetrahydropyran-2-yl]cyclopropyl]phosphonic acid], the IC50 lay within 10 to 100 µM.

For the next test, the target named is Biotinylated-IgG1 (Viva 20211108). Briefly: HTRF ternary complex formation: compound titrated into 60 nM biotinylated IgG1 + 60 nM His-tagged hIGF-IIR (R&D 6418-GR); grade read by the legend '<50 nM = ***'.
Details: not given
As for B1, the EC50 is under 0.05 µM.

With B2, the concentration for a half-maximal effect (EC50) is under 0.05 µM.

For B3, the concentration for a half-maximal effect (EC50) was under 0.05 µM.

As for B4, the EC50 was under 0.05 µM.

For B5, the EC50 is under 0.05 µM.
